The source of these data is PubChem BioAssay (NCI).

Structures are written as SMILES.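 In this assay, cells in 96-well plates receive the compound at five concentrations for 48 hours. Endpoints are linearly interpolated between the surrounding concentrations. At the GI50, growth is halved. TGI is the concentration that stops growth completely.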 Where a SMILES comes first, the peptide text is derived from it. The star is where a group is joined. Boc = CC(C)(C)OC(=O)* Some results are limits rather than exact numbers.

Some test systems named below: UACC-257 melanoma; T-47D breast; HOP-62 NSCLC; OVCAR-3 ovarian; OVCAR-5 ovarian; OVCAR-8 ovarian; NCI-H460 lung; SR leukemia; MDA-MB-435; MCF7 breast; SNB-19 CNS; RPMI-8226 leukemia; SF-295 CNS; HS 578T breast.
Holding throughout (assay): NCI tumour cell line growth inhibition, 48 h

Take `COC(=O)C(Cc1c[nH]c2ccccc12)NC(=O)C(Cc1c[nH]c2ccccc12)NC(=O)C(Cc1c[nH]c2ccccc12)NC(=O)C(Cc1c[nH]c2ccccc12)NC(=O)OC(C)(C)C` (stereo not given) (Boc-WWWW-OMe; configuration not given here): the TGI is > 100 µM in the assay with UACC-257 melanoma; > 100 µM in the assay with T-47D breast; 67 µM with HOP-62 NSCLC; 40.2 µM with OVCAR-3 ovarian; > 100 µM with OVCAR-5 ovarian; > 100 µM in the assay on OVCAR-8 ovarian. Moreover, the TGI in the assay with NCI-H460 lung is > 100 µM; in the assay with SR leukemia it was 56.6 µM; in the assay on MDA-MB-435, > 100 µM; with MCF7 breast it was 0.0884 µM; in the assay with SNB-19 CNS, > 100 µM; with RPMI-8226 leukemia, 26 µM.

Take `COc1cc(/C=C2\N=C(c3ccccc3)N(/N=C3\C(=O)Nc4ccccc43)C2=O)cc(OC)c1OC`: the TGI with UACC-257 melanoma, in the assay with T-47D breast, in the assay with HOP-62 NSCLC, in the assay with OVCAR-3 ovarian, with OVCAR-5 ovarian and in the assay on OVCAR-8 ovarian was > 100 µM in each case. Moreover, the TGI with NCI-H460 lung, with SR leukemia, in the assay with MDA-MB-435, with SF-295 CNS, in the assay with MCF7 breast and in the assay on HS 578T breast was > 100 µM throughout. In addition, in the assay on SNB-19 CNS, the TGI was > 100 µM.

Regarding `Cc1nccn1S(=O)(=O)c1ccc(Br)cc1Br`, the TGI was > 100 µM in the assay on UACC-257 melanoma; > 100 µM with T-47D breast; 55.4 µM with OVCAR-3 ovarian; > 100 µM in the assay on OVCAR-5 ovarian; > 100 µM in the assay with OVCAR-8 ovarian; > 100 µM in the assay with NCI-H460 lung. For the same compound, the TGI is 78.3 µM in the assay with SR leukemia; 46 µM in the assay on MDA-MB-435; 93.1 µM in the assay on SF-295 CNS; > 100 µM with MCF7 breast; > 100 µM with HS 578T breast; 90.3 µM in the assay with SNB-19 CNS. In the assay on RPMI-8226 leukemia, this compound came in with a TGI of 47.4 µM.

For `Cc1cccc2nc3cccc(C(=O)NCCC[N+](C)(CCCNC(=O)c4cccc5nc6cccc(C)c6nc45)Cc4c([N+](=O)[O-])ncn4C)c3nc12`, the GI50 with UACC-257 melanoma was 63 µM; in the assay on OVCAR-8 ovarian it was 4.44 µM; with NCI-H460 lung, 2.15 µM; in the assay on MDA-MB-435, 191 µM; with SF-295 CNS it was 25 µM; with MCF7 breast, 2.34 µM. Besides, the TGI in the assay on UACC-257 melanoma was > 1100 µM; in the assay on T-47D breast it was > 1100 µM; with OVCAR-3 ovarian it was > 1100 µM; with OVCAR-8 ovarian it was > 1100 µM; in the assay with NCI-H460 lung, 257 µM; with SR leukemia, > 1100 µM. The TGI was > 1100 µM in the assay with MDA-MB-435; > 1100 µM with SF-295 CNS; 96.9 µM in the assay with MCF7 breast; > 1100 µM in the assay with HS 578T breast; > 1100 µM with SNB-19 CNS; 0.521 µM with RPMI-8226 leukemia.

As to `Cc1ccc(S(=O)(=O)NC(=O)NCCC(=O)O)cc1`, the TGI in the assay on UACC-257 melanoma, with T-47D breast, in the assay on HOP-62 NSCLC, with OVCAR-5 ovarian, with OVCAR-8 ovarian and in the assay with NCI-H460 lung was > 100 µM in each case. Also, the TGI with SR leukemia, with SF-295 CNS, in the assay on MCF7 breast, with HS 578T breast, in the assay on SNB-19 CNS and in the assay on RPMI-8226 leukemia was > 100 µM in each case.

For the compound `CO/C(=N\N=C\c1ccc(Cl)cc1Cl)c1ccncc1`, the TGI in the assay on UACC-257 melanoma, in the assay on T-47D breast, in the assay with HOP-62 NSCLC, in the assay on OVCAR-3 ovarian, in the assay on OVCAR-5 ovarian and with OVCAR-8 ovarian was > 10 µM each time. In addition, the TGI with NCI-H460 lung, in the assay on SR leukemia, in the assay on MDA-MB-435, in the assay with SF-295 CNS, in the assay with MCF7 breast and in the assay on SNB-19 CNS was > 10 µM in each case. In the assay with RPMI-8226 leukemia, the TGI was > 10 µM.

On to `CN1C/C(=C\c2ccc(Cl)cc2)C(=O)/C(=C/c2ccc(Cl)cc2)C1`, for which the TGI in the assay on UACC-257 melanoma was 2.44 µM; in the assay with T-47D breast it was > 100 µM; in the assay on HOP-62 NSCLC, > 28.5 µM; in the assay with OVCAR-3 ovarian, 6.57 µM; in the assay with OVCAR-5 ovarian, > 100 µM; in the assay with OVCAR-8 ovarian it was 0.605 µM. In addition, the TGI in the assay with NCI-H460 lung is 4.59 µM; in the assay with SR leukemia it was 5.47 µM; in the assay with MDA-MB-435 it was > 100 µM; with SF-295 CNS it was 2.07 µM; with HS 578T breast, > 100 µM; in the assay with SNB-19 CNS it was > 100 µM. This compound also showed a TGI in the assay with RPMI-8226 leukemia of 0.895 µM.

On to `COc1ccc(-c2nc(-c3cc4ccccc4oc3=O)cs2)cc1`, for which the TGI with UACC-257 melanoma was > 100 µM; in the assay on T-47D breast, > 100 µM; in the assay with HOP-62 NSCLC, 96.4 µM; with OVCAR-5 ovarian, > 100 µM; in the assay with OVCAR-8 ovarian, 56.3 µM; in the assay with NCI-H460 lung it was > 100 µM. In addition, the TGI in the assay with SR leukemia, in the assay on MDA-MB-435, with SF-295 CNS, with MCF7 breast, in the assay with HS 578T breast and with SNB-19 CNS was > 100 µM throughout. The TGI in the assay with RPMI-8226 leukemia was > 100 µM.

For `NC(c1ccccc1)(C(F)(F)F)P1(=O)OC(=O)c2ccccc2O1` (stereo not given), the TGI in the assay on UACC-257 melanoma, in the assay on T-47D breast, in the assay on HOP-62 NSCLC, in the assay with OVCAR-3 ovarian, in the assay with OVCAR-5 ovarian and in the assay with OVCAR-8 ovarian was > 100 µM each time. Moreover, the TGI in the assay on NCI-H460 lung, in the assay with SR leukemia, in the assay with MDA-MB-435, in the assay on SF-295 CNS, in the assay with MCF7 breast and with SNB-19 CNS was > 100 µM throughout. In the assay on RPMI-8226 leukemia, the TGI was > 100 µM.

For `Cc1cn(CC2=NCCCN2)c(=O)[nH]c1=O`, the TGI in the assay with UACC-257 melanoma, with T-47D breast, in the assay on HOP-62 NSCLC, in the assay on OVCAR-5 ovarian, in the assay on OVCAR-8 ovarian and with NCI-H460 lung was > 100 µM each time. The TGI in the assay on SR leukemia, with SF-295 CNS, with MCF7 breast, with HS 578T breast, with SNB-19 CNS and in the assay on RPMI-8226 leukemia was > 100 µM each time.

As for `CC(=NCCN(CCN=C(C)c1c(O)cc(C)oc1=O)CCN=C(C)c1c(O)cc(C)oc1=O)c1c(O)cc(C)oc1=O`, the TGI in the assay with UACC-257 melanoma, in the assay with T-47D breast, in the assay on HOP-62 NSCLC, with OVCAR-5 ovarian, in the assay with OVCAR-8 ovarian and in the assay with NCI-H460 lung was > 100 µM in each case. The TGI with SR leukemia, in the assay with MDA-MB-435, with SF-295 CNS, with MCF7 breast, in the assay on HS 578T breast and with SNB-19 CNS was > 100 µM in each case. Also, the TGI in the assay on RPMI-8226 leukemia is > 100 µM.

On to `CC(=Nc1c2ccccc2nc2ccccc12)N(C)C`, for which the TGI in the assay on UACC-257 melanoma was 43.5 µM; in the assay on T-47D breast, 54.5 µM; in the assay with HOP-62 NSCLC, 66.2 µM; with OVCAR-3 ovarian, 46.5 µM; in the assay on OVCAR-5 ovarian, > 100 µM; in the assay with OVCAR-8 ovarian, 52.4 µM. Besides, the TGI is 23.3 µM in the assay with SR leukemia; > 100 µM with MDA-MB-435; > 100 µM in the assay on SF-295 CNS; 78.8 µM with MCF7 breast; 69.8 µM in the assay on HS 578T breast; > 100 µM with SNB-19 CNS. This compound returned a TGI in the assay with RPMI-8226 leukemia of 38.2 µM.

For `CC(C)[C@H]1NC(=O)[C@H]2N=C(O[C@@H]2C)[C@@H]2CCCN2C(=O)[C@H](Cc2ccccc2)NC(=O)[C@@H]2CSC(=N2)[C@@H](Cc2ccccc2)NC(=O)[C@@H]2CSC1=N2`, the TGI in the assay on UACC-257 melanoma, with T-47D breast, in the assay with HOP-62 NSCLC, in the assay with OVCAR-3 ovarian, in the assay on OVCAR-5 ovarian and in the assay on OVCAR-8 ovarian was > 100 µM in each case. Besides, the TGI in the assay with SR leukemia, with MDA-MB-435, with SF-295 CNS, in the assay on MCF7 breast, in the assay on HS 578T breast and in the assay on SNB-19 CNS was > 100 µM each time. In addition, the TGI in the assay on RPMI-8226 leukemia came to 94.9 µM.

On to `O=C(NC1(C(=O)NNc2nnc(-c3ccccc3)c(-c3ccccc3)n2)C(c2ccccc2)C(c2ccccc2)=NN1c1ccccc1)c1ccccc1` (stereo not given), for which the TGI in the assay on UACC-257 melanoma, in the assay with T-47D breast, in the assay with HOP-62 NSCLC, with OVCAR-3 ovarian, in the assay with OVCAR-5 ovarian and in the assay on OVCAR-8 ovarian was > 100 µM throughout. Also, the TGI with NCI-H460 lung, in the assay with SR leukemia, with MDA-MB-435, in the assay with SF-295 CNS, with HS 578T breast and in the assay with SNB-19 CNS was > 100 µM in each case.

Take `O=C1CSC2=NCC3(NN12)c1ccccc1-c1ccccc13`: the TGI with UACC-257 melanoma, with T-47D breast, in the assay on HOP-62 NSCLC, with OVCAR-8 ovarian, in the assay with NCI-H460 lung and in the assay on SR leukemia was > 10 µM each time. In addition, the TGI in the assay on MDA-MB-435, in the assay on SF-295 CNS, in the assay on MCF7 breast, with HS 578T breast, in the assay on SNB-19 CNS and with RPMI-8226 leukemia was > 10 µM each time.
